# Entries after “also recorded” stand apart in the source; their conditions may differ.
# Assays:
# [1] = Single-ascending dose clinical trial, safety; type: in vivo, human; settings: single dose 6 mg or placebo (n = 8)
# Experimental: (§1) Safety was assessed for 7 (±3) days after dosing.
# [2] = Single-ascending dose clinical trial, plasma PK; type: in vivo, human; settings: for plasma PK exposure increase with dose: single dose, between 3 and 10 mg
# Experimental: as §1
# (§2) Plasma PK parameters were determined by non-compartmental analysis.
# [3] = Multiple-ascending dose clinical trial, safety; type: in vivo, human
# Experimental: (§3) A multiple-ascending dose clinical trial of Compound 1 was performed.
# plasma SSAO [4] = biological target: T1, plasma SSAO (Homo sapiens, UniProt Q16853); experiment: Single-ascending dose trial, plasma SSAO / amine oxidase activity; type: in vivo
# T1 construct: from tissue; host or cells: human plasma
# T1 sequence (Q16853 29-763 limits assumed): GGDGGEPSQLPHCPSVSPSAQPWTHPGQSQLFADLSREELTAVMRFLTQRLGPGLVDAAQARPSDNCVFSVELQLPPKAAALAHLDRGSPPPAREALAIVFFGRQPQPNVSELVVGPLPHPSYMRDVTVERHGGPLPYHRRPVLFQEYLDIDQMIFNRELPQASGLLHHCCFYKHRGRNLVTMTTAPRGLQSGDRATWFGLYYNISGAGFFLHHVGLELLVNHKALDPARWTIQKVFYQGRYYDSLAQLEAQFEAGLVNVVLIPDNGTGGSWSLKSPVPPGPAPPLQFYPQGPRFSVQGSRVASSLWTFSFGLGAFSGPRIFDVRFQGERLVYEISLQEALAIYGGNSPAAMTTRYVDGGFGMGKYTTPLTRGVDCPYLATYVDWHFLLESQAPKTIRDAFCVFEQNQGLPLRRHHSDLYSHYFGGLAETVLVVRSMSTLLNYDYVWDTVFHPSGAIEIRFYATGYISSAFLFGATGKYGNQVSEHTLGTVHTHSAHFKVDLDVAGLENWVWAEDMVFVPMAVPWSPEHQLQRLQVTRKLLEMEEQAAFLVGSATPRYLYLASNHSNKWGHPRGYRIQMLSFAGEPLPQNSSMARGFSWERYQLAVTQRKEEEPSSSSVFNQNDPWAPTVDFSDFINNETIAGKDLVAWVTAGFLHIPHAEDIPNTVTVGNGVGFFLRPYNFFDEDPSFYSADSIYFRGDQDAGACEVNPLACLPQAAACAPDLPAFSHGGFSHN
# Experimental: as §1, §2
# SSAO-specific amine oxidase levels in plasma were determined using a kinetic-based assay essentially as described previously (Schilter et al). Endogenous monoamine oxidases A and B were inhibited by adding pargyline to plasma samples prior to measuring H2O2 generation levels in placebo and active recipients.
# [5] = NASH patient study Part 1, safety; type: in vivo, human; settings: 10 mg QD 12 weeks, NASH patients
# Experimental: (§4) Part 1 interim analysis primary endpoint was safety assessed by adverse events (AEs) and laboratory tests; percent change from baseline (BL) in plasma VAP-1 activity was a secondary endpoint. Exploratory imaging and blood-based biomarkers of liver inflammation and fibrosis were also assessed. Analyses of change (or percent change) from baseline used an ANCOVA model with change (or percent change) from baseline as the dependent variable including treatment group and randomization strata as fixed effects and baseline as a covariate.
# [6] = test system: NASH and inflammation biomarkers; experiment: NASH patient study Part 1, imaging and blood biomarkers of liver inflammation and fibrosis; type: in vivo, human
# Experimental: Plasma samples are collected for measurement of plasma concentrations of study drug and metabolites. Urine samples are collected for measurement of urine concentrations of study drug and metabolites. Patients who are not participating in the PK/PD sub-study undergo trough PK sampling only. Blood collection for NASH/fibrosis markers (CK-18 (M30 and M65), PIIINP, TIMP-1, HA, PRO-C3, and C3M) and inflammation markers (hs-CRP, IL-6, ICAM-1, and VCAM-1) are also conducted. The following exploratory fibrosis scores may also be calculated: FIB-4, enhanced liver fibrosis (ELF), and NAFLD. The PRO-C3/C3M ratio may be calculated. Patients are monitored for adverse events.
# as §4
# plasma VAP-1 = biological target: T2, plasma VAP-1 (Homo sapiens, UniProt Q16853); experiment: NASH patient study Part 1, plasma VAP-1 activity; type: in vivo; settings: 10 mg QD, through week 12
# T2 construct: from tissue; host or cells: human plasma
# T2 sequence (Q16853 29-763 limits assumed): T1 sequence (Q16853 29-763 limits assumed)
# Experimental: as §4
# MAO-B = biological target: T3, MAO-B (Homo sapiens, UniProt P27338); experiment: Biochemical activity, MAO-B; settings: all single dose levels (1-10 mg)
# T3 sequence (P27338 1-520): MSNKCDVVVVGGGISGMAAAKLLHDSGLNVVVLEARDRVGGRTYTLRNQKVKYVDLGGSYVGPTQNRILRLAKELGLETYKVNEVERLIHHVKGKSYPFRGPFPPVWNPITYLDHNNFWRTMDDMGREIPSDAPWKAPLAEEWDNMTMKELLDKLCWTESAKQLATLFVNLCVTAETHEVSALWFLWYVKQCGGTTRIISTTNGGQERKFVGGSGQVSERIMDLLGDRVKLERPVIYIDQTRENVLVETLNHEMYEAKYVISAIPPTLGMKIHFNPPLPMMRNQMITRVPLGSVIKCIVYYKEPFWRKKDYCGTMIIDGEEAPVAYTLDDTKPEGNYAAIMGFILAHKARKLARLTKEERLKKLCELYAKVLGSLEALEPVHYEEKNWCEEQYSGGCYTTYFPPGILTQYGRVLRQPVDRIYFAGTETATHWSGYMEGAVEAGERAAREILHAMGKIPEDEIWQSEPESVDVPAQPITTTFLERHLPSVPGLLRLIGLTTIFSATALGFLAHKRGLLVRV
# plasma SSAO [7] = biological target: T1, plasma SSAO; experiment: Multiple-ascending dose trial, plasma SSAO / amine oxidase activity; type: in vivo
# Experimental: as §3
# MAO-A = biological target: T4, MAO-A (Homo sapiens, UniProt P21397); experiment: Biochemical activity, MAO-A; settings: all single dose levels (1-10 mg)
# T4 sequence (P21397 1-527): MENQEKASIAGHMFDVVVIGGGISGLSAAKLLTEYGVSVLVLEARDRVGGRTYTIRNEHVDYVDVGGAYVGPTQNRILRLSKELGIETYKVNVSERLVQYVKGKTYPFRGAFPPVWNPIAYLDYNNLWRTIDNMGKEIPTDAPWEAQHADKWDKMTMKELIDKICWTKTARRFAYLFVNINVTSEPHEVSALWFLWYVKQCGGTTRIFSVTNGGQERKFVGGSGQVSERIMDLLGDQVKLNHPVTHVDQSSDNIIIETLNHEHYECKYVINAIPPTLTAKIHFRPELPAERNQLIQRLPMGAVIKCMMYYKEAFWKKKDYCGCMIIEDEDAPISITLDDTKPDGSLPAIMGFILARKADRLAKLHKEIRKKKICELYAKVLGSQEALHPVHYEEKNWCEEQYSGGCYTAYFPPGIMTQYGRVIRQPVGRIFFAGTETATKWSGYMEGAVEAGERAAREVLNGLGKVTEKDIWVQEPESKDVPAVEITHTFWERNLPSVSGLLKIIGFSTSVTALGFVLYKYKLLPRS
# plasma methylamine [8] = experiment: Single-ascending dose trial, plasma methylamine (MMA); type: in vivo, human; settings: single dose 1-10 mg
# Experimental: as §1
# plasma methylamine [9] = experiment: Multiple-ascending dose trial, plasma methylamine; type: in vivo, human
# Experimental: as §3
# rat model of NASH = experiment: Rat model of NASH; type: in vivo
# [10] = Multiple-ascending dose clinical trial, plasma PK; type: in vivo, human
# Experimental: as §3
# [11] = 1, 4 mg QD 7 days, 10 mg QD 14 days
smiles,measurement,setting,value
COC1CCN(c2ncc(OC/C(=C/F)CN)cn2)CC1.Cc1ccc(S(=O)(=O)O)cc1 [tosylate salt of Compound 1],Subject incidence of any TEAE,[1],2 (25)
same,TEAE frequency: contact dermatitis,[1],2 (25)
same,TEAE frequency: sore throat,[1],1 (12.5)
same,plasma PK exposure increase with dose,[2],greater than dose proportional
same,clearance from plasma,[2]; single doses,rapidly cleared from plasma
"COC1CCN(c2ncc(OC/C(=C/F)CN)cn2)CC1 [Compound 1, (E)-3-fluoro-2-(((2-(4-methoxypiperidin-1-yl)pyrimidin-5-yl)oxy)methyl)prop-2-en-1-amine]",discontinuation due to an adverse event,[3]; [11],No subject discontinued
same,severity of adverse events,[3]; [11],mild (grade 1)
same,"safety and tolerability (laboratory, vital signs, ECG)","[3]; up to 10 mg QD for 14 days, healthy subjects",no notable findings; also recorded: safe and well tolerated
same,duration of SSAO activity inhibition after a single dose,plasma SSAO [4]; single dose 1 mg to 10 mg,up to seven days
same,duration of suppression of plasma SSAO amine oxidase activity after a single dose,plasma SSAO [4]; single dose 1-10 mg,up to 1 week
same,severity of AEs,[5],mild or moderate
same,tolerability,[5],well-tolerated
same,changes in cT1 from baseline to end of treatment,[6]; 10 mg QD 12 weeks,no significant changes
same,"difference from placebo in change from BL cT1, liver fat fraction, liver enzymes, or cytokeratin-18",[6]; 10 mg QD 12 weeks,no statistically significant differences
same,"ICAM-1 decrease relative to BL, mean (±SE)","[6]; 10 mg QD, Week 8",34.85 (56.03) μg/L
same,"TIMP-1 decrease relative to BL, mean (±SE)","[6]; 10 mg QD, Week 12",29.58 (9.26) ng/ml
same,"VCAM-1 decrease relative to BL, mean (±SE)","[6]; 10 mg QD, Week 12",24.327 (20.5850) μg/L
same,inhibition of plasma VAP-1 activity,plasma VAP-1,sustained suppression; also recorded: near complete inhibition
same,plasma PK exposure increase with dose,[2],greater than dose proportional
same,Cmax relative to IC50 for MAO-B (times lower),MAO-B,more than 800 times
same,duration of near complete inhibition of plasma SSAO amine oxidase activity after cessation of dosing,plasma SSAO [7]; after multiple QD doses,up to 2 weeks
same,inhibition of total amine oxidase,"plasma SSAO [7]; plasma, single and multiple doses",incomplete
same,Cmax relative to IC50 for MAO-A (times lower),MAO-A,more than 800 times
same,plasma methylamine (MMA) levels,plasma methylamine [8],increased; also recorded: Dose-dependent increases
same,plasma methylamine levels,plasma methylamine [9]; Day 1,increased in a dose proportional manner
same,plasma methylamine levels,"plasma methylamine [9]; last day of administration, after multiple doses",further increases
same,liver inflammation and fibrosis,rat model of NASH,decreases liver inflammation and fibrosis
same,plasma PK exposure increases between dose groups,"[10]; Day 1, 1, 4, 10 mg",greater than dose proportional
same,accumulation after multiple QD doses,[10]; each dose level,significant accumulation

# Source: patent publication US20250099468A1, “TREATING LIVER DISORDERS WITH AN SSAO INHIBITOR” (Terns Pharmaceuticals, Inc., priority 2021, published 2025)
